In patent publication US20230405134A1, “NOVEL PROTAC CHIMERIC COMPOUND, AND PHARMACEUTICAL COMPOSITION COMPRISING SAME FOR PREVENTING, AMELIORATING, OR TREATING DISEASES THROUGH TARGET PROTEIN DEGRADATION” (POSTECH RESEARCH AND BUSINESS DEVELOPMENT FOUNDATION, priority 2020, published 2023):
Where a SMILES comes first, the peptide text is derived from it. Bridges are numbered along the chain shown (N, C = ends). [ ]: non-standard residue; d: D form. Cha = N[C@@H](CC1CCCCC1)C(=O)O; S5 = C=CCCC[C@](C)(N)C(=O)O

Tests used:
HEK293T = assay: Cell viability assay; assay type: cell-based; conditions: various concentrations, 48 hours
Protocol: (§1) To further confirm the above results, an MTT cell viability assay was performed. MDA-MB-231 (1×10^4 cells/well), HEK293T (1×10^4 cells/well) and Colo205 (2×10^4 cells/well) cells were seeded in a 96-well plate, and cultured under the conditions of 37° C. and 5% carbon dioxide. After 24 hours, the cells were washed twice with DPBS and treated with DMSO or various concentrations of ND1-YL2 in Opti-MEM medium for 48 hours. Cell viability was measured by the Cyto X cell viability assay kit (LPS solution) according to the manufacturer's instructions.

MDA-MB-231 cells = assay: Gap closure migration assay; assay type: cell-based, human; conditions: 20 μM, 72 hours
Protocol: Based on the results that the SRC-1 degradation effectively affects the transcription mediated by SRC-1 (FIGS. 18A and 18B), it was predicted that ND1-YL2 would exert an inhibitory effect on downstream signaling pathways such as increased cancer cell migration and invasion. To test this, we first performed a gap closure migration assay using an invasive MDA-MB-231 cell line. MDA-MB-231 cells (70 μL of 4×10^5 cells/mL) were seeded in culture insert 2 wells (ibidi, 80209) pre-inserted into p-dishes (ibidi) under the conditions of 37° C. and 5% CO2. The culture insert 2 wells was gently removed with sterile tweezers. The cells were treated with DMSO, YL2 (20 […]), RLAA (20 μM) or ND1-YL2 (20 μM) in Opti-MEM medium for 72 hours. Images were obtained by a camera (Olympus) attached to an optical microscope. The cells were grown in the culture insert wells, and the inserts were removed to create intercellular gaps inside the wells. Subsequently, after treated with DMSO, YL2, RLAA peptide or ND1-YL2, the cells were cultured for 72 hours and the degree of cell migration was observed. The cell migration was quantified by analyzing the images of cells filling the gap.

UBR box = target: T1, UBR box (Saccharomyces cerevisiae, UniProt P19812); assay: Competitive fluorescence polarization (FP) assay against fluorescein-labeled RLAA peptide; assay type: binding, S. cerevisiae
T1 construct: UBR box (residues 113-194) in the UBR1 E3 ubiquitin ligase of S. cerevisiae; made in house
T1 sequence (P19812 113-194): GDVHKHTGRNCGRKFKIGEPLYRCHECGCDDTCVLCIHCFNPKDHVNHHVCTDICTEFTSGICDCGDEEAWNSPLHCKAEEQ
Protocol: An expression plasmid of the PAS-B domain of human SRC-1 (residues 257-385) tagged with His6 was provided by Professor John. A. Robinson. (ChemBioChem 2008, 9, 1318-1322). The plasmid was transformed into BL21 (DE3) pLysS cells, and the protein was cultured in Luria-Bertani broth medium and induced with 0.5 mM IPTG at 18° C. for 16 hours. Cell disruption was performed by ultrasonic treatment in a buffer (50 mM Tris-HCl pH 8.0, 200 mM NaCl and 1 mM TCEP), and insoluble materials were removed by centrifugation. HisTrap™ column (GE Healthcare, 17-5255-01) chromatography was performed on the buffer and 500 mM of imidazole was applied for elution. In order to remove the His6-tag, TEV protease was used and the cleaved samples were loaded in HisTrap™ as described above. The SRC-1 was further purified by size exclusion chromatography (HiLoad™ 16/600 Superdex 75 pg) in a final buffer of 20 mM Tris-HCl pH 7.5, 150 mM NaCl and 1 mM TCEP. The expression and purification of the UBR box (residues 113-194) in the UBR1 E3 ubiquitin ligase of S. cerevisiae was performed in the previous manner. (Nat. Struct. Mol. Biol. 2010, 17, 1175-1181).
A competitive fluorescence polarization (FP) assay was performed to evaluate the binding affinity of ND1-YL2 to the target protein. A fluorescently labeled 15-mer STAT-6 peptide (100 nM) was cultured with the PAS-B domain (5 μM) of SRC-1 in a binding buffer (50 mM HEPES, pH 7.4, 150 mM NaCl, and 0.01% Tween 20). After being placed in black Costar 384-well plates for 30 minutes, they were treated with various concentrations of YL2 and ND1-YL2. After further incubation for 1 hour, the polarization of fluorescence was measured by a Tecan F200 microplate reader (excitation wavelength: 485 nm; emission wavelength: 535 nm). IC50 values were determined using non-linear regression and fitted with GraphPad Prism® 4 software using the following equation: Y=Bottom+(Top-Bottom)/(1+10^X-LogIC50) (FIG. 11A). […] The binding affinity was calculated as described above (FIG. 11B).

Colo205 = assay: Cell viability assay; assay type: cell-based, human; conditions: Colo205, various concentrations, 48 hours
Protocol: as §1

MDA-MB-231 = assay: Cell viability assay; assay type: cell-based, human; conditions: MDA-MB-231, various concentrations, 48 hours
Protocol: as §1

CSF-1 = CSF-1 mRNA level by RT-qPCR in MDA-MB-231 cells; assay type: cell-based, human; conditions: 12 hours
Text: The pharmacological effects on SRC-1 dependent signal transmission were explored using the previously discovered SRC-1 degrading substance. The SRC-1 is overexpressed in various cancers and plays a pivotal role in increasing cell migration and invasion by regulating the expression of related genes. Therefore, when treated with ND1-YL2, an SRC-1 degrading substance, the expression of genes stimulated by SRC-1, such as colony stimulating factor-1 (CSF-1), a gene encoding the cytokine CSF-1 that induces cell differentiation and migration, will be suppressed. To confirm this, MDA-MB-231 cells were treated with DMSO and various concentrations of ND1-YL2, YL2 or N-degron tetrapeptide for 12 hours, and the mRNA level of CSF-1 was normalized to 18S level. Confirmation was made using quantitative real-time polymerase chain reaction (RT-qPCR). MDA-MB-231 cells were seeded at 2×10^5 cells per well. After 24 hours, compounds (YL2, RLAA or ND1-YL2) were treated in Opti-MEM medium for 12 hours. Subsequently, general mRNA isolation was performed using TRI reagent (Takara), and total mRNA was isolated from the cells. The absorbance of total mRNA was measured with a Tecan F200 Nanophotometer, and reverse transcription was performed using AccuPower RocketScript Cycle RT PreMix (Bioneer). Quantitative real-time PCR for CSF-1, E-Cadherin and 18S was performed using a StepOnePlus Real-Time PCR System and SYBR Green mix (Applied Biosystems) according to the manufacturer's manual.

CC(C)C[C@H](NC(=O)[C@H](C)NC(=O)[C@H](C)NC(=O)[C@H](C)NC(=O)[C@H](C)NC(=O)[C@H](CC(C)C)NC(=O)[C@@H](N)CCCNC(=N)N)C(=O)N[C@@H](CC(C)C)C(=O)N1CCC[C@H]1C(=O)N1CCC[C@H]1C(=O)N[C@H](C(=O)N[C@@H](CCC(=O)O)C(=O)N[C@@H](CCC(N)=O)C(=O)N[C@@H](CC(=O)O)C(=O)N[C@@H](CC(C)C)C(=O)N[C@@]1(C)CCC/C=C\CCC[C@@](C)(C(=O)N[C@@H](Cc2ccc(O)cc2)C(N)=O)NC(=O)[C@H](CC2CCCCC2)NC(=O)[C@H](CC(C)C)NC(=O)[C@H](CCCCN)NC1=O)[C@@H](C)O [ND1-YL2] (H-RLAAAALLPPTEQDL[S5]KL[Cha][S5]Y-NH2; staple (Z) 16-20)
Effect on cell survival (HEK293T): did not significantly affect the survival | Existing gaps maintained (cell migration) (MDA-MB-231 cells): about 80% | Improved affinity for the UBR box compared to the RLAA tetrapeptide (UBR box): approximately 3 fold | Ki (UBR box): 1480 nM | Difference in binding affinity for target E3 ligase compared to CL1-YL2 (UBR box; ND1-YL2 binds less strongly to its E3 ligase than CL1-YL2): ~10 fold | Effect on cell survival (Colo205): did not significantly affect the survival | Effect on cell survival (MDA-MB-231): did not significantly affect the survival | Effect on CSF-1 expression (mRNA normalized to 18S) (CSF-1): downregulated CSF-1 expression
